# Laboratory results from US4302541A, “Process of producing optically active cephalosporin analogs by enzyme selective deacylation” (Kyowa Hakko Kogyo Co., Ltd., priority 1979, dated 1981).
# Read-outs that look alike come from different tables or passages of the source.
# What was measured:
# Assay in all cases: Heart Infusion Agar Dilution Method (MIC)
# Format in all cases: cell-based
# Escherichia coli NIHJC-2 = details: NIHJC2, pH 7.2
# Escherichia coli Juhl = details: pH 7.2
# [1] = test system: Staphylococcus aureus 209-P; details: pH 7.2
# [2] = test system: Staphylococcus epidermidis; details: pH 7.2
# Proteus mirabilis 1287 = test system: Proteus mirabilis 1287
# [3] = test system: Klebsiella pneumoniae Y-60; details: Y60, pH 7.2
# Serratia marcescens T-55 = details: T55, pH 7.2
# [4] = test system: Klebsiella pneumoniae 8045; details: pH 7.2
# Serratia marcescens T-26 = details: T26, pH 7.2
# [5] = Staphylococcus aureus 209-P, Heart Infusion Agar Dilution Method, read-out: MIC
SMILES,MIC (Escherichia coli NIHJC-2),MIC (Escherichia coli Juhl),"MIC [1, 5]",MIC [2],"MIC (Proteus mirabilis 1287; Proteus mirabilis, 1287, pH 7.2)","MIC ([1]; Staphylococcus aureus, 209P)",MIC [3],MIC (Serratia marcescens T-55),MIC [4],"MIC (Proteus mirabilis 1287; Proteus mirabilis 1287, Heart Infusion Agar Dilution Method, pH 7.2, read-out: MIC)",MIC (Serratia marcescens T-26)
Cc1nnc(SCC2=C(C(=O)O)N3C(=O)[C@@H](NC(=O)Cn4cnnn4)[C@H]3SC2)s1 [Cefazolin],1.56 µg/mL,1.56 µg/mL,≤ 0.05 µg/mL,,,,,,,,
CC1=C(C(=O)O)N2C(=O)[C@@H](NC(=O)[C@H](N)c3ccccc3)[C@H]2SC1 [Cephalexin],12.5 µg/mL,12.5 µg/mL,,3.12 µg/mL,25 µg/mL,0.2 µg/mL,50 µg/mL,50 µg/mL,,,
"N[C@@H](C(=O)N[C@@H]1C(=O)N2C(C(=O)O)=C(Cl)CC[C@H]12)c1ccccc1 [Reference Example 2, (6R, 7S) 7-(R)-2-phenylglycinamido3-chloro-1-azabicyclo[4,2,0]oct-2-en-8-on-2-carboxylic acid]",,,0.1 µg/mL,,,,,,0.2 µg/mL,3.12 µg/mL,> 100 µg/mL
